# Assay: Biocide migration test: biocide in strippable PV Acetate emulsion coating, film coated with cooking oil for 24 hrs, oil tested for presence of biocide
# Assay type: physicochemical
# Details: dry film in situ, oily deposits
# Description: Initially biocides were selected for trial on the basis that they would be innocuous in a food preparation area. Many of those initially tested are food grade or similar low toxicity biocides. Biocides were tested by incorporating the biocide in the strippable PV Acetate emulsion coating formulation, coating a film of the coating with cooking oil and leaving it in place for 24 hrs and then testing the oil for presence of Biocide. The leaching of the biocide into the oil is considered a proxy for the ability of the film to prevent microbial degradation of the oily material coated thereon.
row,SMILES,Suitability as oil soluble biocide leaching from the dry film into oils deposited on the film
1,"CCCCOC(=O)c1ccc(O)cc1 [butyl parabens, Butyl Parabens]",satisfactory
2,"OCCOc1ccccc1 [phenoxyethanol, Phenoxyethanol]",ineffective

# Same assay, conditions: strippable PV Acetate emulsion coating film coated with cooking oil, 24 hrs, oil tested for presence of biocide
row,SMILES,Leaching (migration) of the biocide from the coating into the oil
1,CCCOC(=O)c1ccccc1 [propyl benzoate],passed the above test
2,CCOC(=O)c1ccccc1 [ethylbenzoate],passed the above test
3,CCCCOC(=O)c1ccccc1 [butyl benzoate],passed the above test
4,COC(=O)c1ccccc1 [methyl benzoate],passed the above test

# Source: patent US10487219B2, “Method and compositions for cleaning cooking range exhaust systems” (NOVAPHARM RESEARCH (AUSTRALIA) PTY LTD, priority 2015, dated 2019)
